The target of this experiment is T1, Trx reductase-1 (TrxR1) (Rattus norvegicus, UniProt O89049).
T1 construct: gene Txnrd1
T1 sequence (O89049 1-499): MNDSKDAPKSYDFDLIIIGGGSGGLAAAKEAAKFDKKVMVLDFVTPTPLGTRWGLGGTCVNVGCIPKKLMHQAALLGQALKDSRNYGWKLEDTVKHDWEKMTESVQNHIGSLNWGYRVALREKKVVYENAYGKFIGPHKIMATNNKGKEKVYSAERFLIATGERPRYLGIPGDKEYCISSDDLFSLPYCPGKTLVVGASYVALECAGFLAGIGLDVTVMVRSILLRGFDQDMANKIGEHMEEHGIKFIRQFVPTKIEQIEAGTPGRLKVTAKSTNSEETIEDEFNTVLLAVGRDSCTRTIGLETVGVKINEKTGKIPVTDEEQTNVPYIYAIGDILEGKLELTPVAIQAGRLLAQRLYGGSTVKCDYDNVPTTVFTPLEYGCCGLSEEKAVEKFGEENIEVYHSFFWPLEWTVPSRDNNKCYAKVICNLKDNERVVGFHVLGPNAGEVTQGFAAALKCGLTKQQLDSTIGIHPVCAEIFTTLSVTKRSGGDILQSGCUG
The experiment in a line: DTNB reduction assay with purified TrxR1, […] h pre-incubation with NADPH at pH […].

`CNC(=O)N(NS(C)(=O)=O)S(C)(=O)=O` [101MDCE, 1,2-bis(methylsulfonyl)-1-[(methylamino)carbonyl]hydrazine] registered a 50% inhibitory concentration (IC50) of 9.9 ± 3.1 µM.
Turning to `CNC(=O)N(N(CCCl)S(C)(=O)=O)S(C)(=O)=O` [Laromustine, 1,2-bis(methylsulfonyl)-1-(2-chloroethyl)-2-[(methylamino)carbonyl]hydrazine], the midpoint of inhibition, the IC50, lay at 5 ± 1.1 µM.
In the case of `O=NN(CCCl)C(=O)NCCCl` [BCNU, 1,3-bis(2-chloroethyl)-1-nitrosourea] it was 5.4 ± 1.4 µM.

Broadly, the IC50 is the midpoint of a concentration-inhibition curve. Low values mean greater potency in that assay, high ones weaker potency in that assay.

Values taken from publication PMC4113355, “Carbamoylating Activity Associated with the Activation of the Antitumor Agent Laromustine Inhibits Angiogenesis by Inducing ASK1-Dependent Endothelial Cell Death” (PLoS ONE, 2014).
